This note sets out measurements from ChEMBL document CHEMBL2413030, “Multimerized CHR-derived peptides as HIV-1 fusion inhibitors” (Bioorg Med Chem, 2013).

Square brackets hold non-standard residues; d marks the D form. Nle = CCCC[C@H](N)C(=O)O

A short description of data set [1]: Cytotoxicity against human TZM-bl cells by MTS assay. It is filed as cell-based.
Data set [2] deals with Human immunodeficiency virus 1. The data set can be described thus: Antiviral activity against HIV1 NL4-3 assessed as inhibition of viral fusion with human TZM-bl cells after 48 hrs by steady glo luciferase reporter gene assay. It is filed as functional, organism-based. The conditions noted are these: Human immunodeficiency virus 1, NL4-3, TZM-bl.

With “H-W[Nle]EWDRKIEEYTKKIEELIKKSQEQQEKNEKELKREREREG-OH”, the CC50 in data set [1] was more than 5 µM. The IC50 in data set [2] worked out at 1.82 nM.

The substance enfuvirtide showed a CC50 in data set [1] of more than 5 µM. Further, in data set [2], the IC50 was found to be 45.2 nM.
